Measured values taken from patent publication US7498046B2, “Composition for inducing immune response comprising inverted microsomes” (Queen Mary & Westfield College, priority 2003, dated 2009).

Assays:
B3Z T cell hybridoma = assay: Activation of B3Z T cell hybridoma (LacZ activity, IL-2 ELISA); type: cell-based; conditions: soluble peptide
Protocol: Microsomes from 2×10^5 RAW309Cr.1 cells were used to load OVA or Ld-specific peptide as described in Material and Methods. 2×10^5 RAW309Cr.1 cells were pulsed with OVA peptide (see Material and Methods). After washing, peptide-pulsed 2×10^5 RAW309Cr.1 cells, OVA-loaded microsomes, Ld-peptide loaded microsomes, and the microsomes without peptide were co-cultured with 10^5 B3Z cells for over night. A) After washing with PBS, LacZ activity in B3Z cells was assayed by total cellular lysates with the LacZ substrate ONPG. The absorbance ([…]) was read after incubation for four hours at 37° C. B3Z cells cultured with 100 nM OVA peptide and normal medium were used as positive and negative control for the B3Z stimulation. B) The supernatants of these cultures were submitted for measuring IL-2 production by ELISA. The experiment was repeated four times with similar results. Error bars indicate the SEM of triplicate cultures. […]
The prepared stimuli including peptide-edited microsomes, peptide-pulsed RAW309Cr.1 cells, OVA peptide, were added to culture of 10^5 B3Z cells in a total of 200 μl. […] The linear range of OVA-response was determined by the addition of serial dilutions of SIINFEKL to the medium due to that the B3Z cells themselves express Kb and present SIINFEKL.

H2-Kb molecules = target: T1, H2-Kb molecules (Mus musculus, UniProt P01901); assay: Photo-crosslinking peptide binding assay of 125I-labelled ANB-NOS-OVA peptide to H2-Kb in microsomes or on the surface of RAW309Cr.1 cells; parameters: species or system murine; conditions: competitor at the concentration of report peptides
T1 construct: incubated with microsomes of RAW309Cr.1 and living RAW309Cr.1 cells under UV irradiation; endogenous in cells; host or cells: RAW309Cr.1 murine macrophage cell line (purified ER microsomes, or living cells)
T1 sequence (P01901 22-369): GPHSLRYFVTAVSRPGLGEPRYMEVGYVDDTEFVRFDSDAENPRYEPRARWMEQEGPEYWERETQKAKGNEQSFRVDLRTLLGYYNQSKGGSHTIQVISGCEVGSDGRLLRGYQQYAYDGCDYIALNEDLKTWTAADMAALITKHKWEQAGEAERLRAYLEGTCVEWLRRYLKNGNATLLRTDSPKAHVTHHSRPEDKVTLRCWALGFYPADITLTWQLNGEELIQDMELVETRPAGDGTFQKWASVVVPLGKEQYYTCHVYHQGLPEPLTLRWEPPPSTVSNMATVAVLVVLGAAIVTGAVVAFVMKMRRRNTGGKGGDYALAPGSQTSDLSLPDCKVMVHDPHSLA
T1 sequence (P01887 21-119 partner): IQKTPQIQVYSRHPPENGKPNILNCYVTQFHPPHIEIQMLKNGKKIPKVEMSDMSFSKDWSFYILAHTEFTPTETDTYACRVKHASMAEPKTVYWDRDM
Protocol: Peptide OVA 257-264 (SIINFEKL) was modified by substitution of third residue isoleucine to tyrosine in order for iodination and by covalently coupling a phenylazide with a nitro group on the ε-amino group of lysine at position seven. This nitro group can be photoactivated. The crosslinker modification was performed by mixing 0.5 mg of ANB-NOS (N-5-azido-2-nitrobenzoyloxysuccinimide) in 200 μl DMSO with 100 μg peptide in 100 μl PBS and 50 μl CPAS (3-[cyclohexylamino]-1-propanesulfonic acid) (0.5 M, pH 10). The reaction was allowed to proceed for 30 min on ice. To remove the excess ANB-NOS and ions, the mixture was purified by gel filtration on Sephadex G-10 and subsequently by HPLC. […]
To detect the peptide-receptive MHC class I molecules in the microsomal membranes, a crosslinker (ANB-NOS) was conjugated to the ε-amino group of the lysine residue of an H2-Kb-binding ovalbumin (OVA) peptide (residues 257-264, SIINFEKL) and substituted the isoleucine at position 3 with tyrosine to allow for iodination. […] For a quantitative comparison of peptide-receptive H2-Kb in microsomes and on cell surface of living RAW309Cr.1, the modified OVA peptide was labelled by ^125I and incubated with microsomes of RAW309Cr.1 and living RAW309Cr.1 cells under UV irradiation. Peptide-bound H2-Kb molecules were subsequently analysed by immunoprecipitation with an anti-H2 antibody Y3.

[1] = tested on: T cells isolated from spleens; assay: In vivo immunisation of C57BL/6 mice, spleen T cells cross-stimulated in vitro (proliferation, IL-2); conditions: C57BL/6, injected twice subcutaneously, one week interval, T cells six days after second injection
Excerpt: C57BL/6 (H-2b) mice were primed […]. by OVA-edited microsomes or Ld-peptide loaded microsomes or OVA peptide or OVA-pulsed RAW309Cr.1 cells and challenged by same stimulus after seven days. Six days after the challenge, enriched T cells were isolated from spleens and cultured at 10^5 cells/well with stimulus indicated. The RAW309Cr.1 cells were irradiated before co-culture with T cells. After three days, supernatants were harvested for cytokine ELISA (b) and cultures pulsed with [^3H]thymidine (a). The results are representative of groups of at least three mice per treatment group and the experiment was repeated four times with similar results. Error bars indicate the SEM of triplicate cultures. Similar set of experiments performed in Balb/c (H-2d) mice served as negative control.
To further examine the ability of OVA-edited microsomes to induce immune responses in vivo, OVA-edited microsomes from RAW309Cr.1 cells, microsomes loaded with Ld-specific peptide, soluble OVA peptides, RAW309Cr.1 pulsed with OVA peptides and PBS were used to induce immune response in vivo. Five groups of C57BL/6 or Balb/c mice, each group consisting of five mice, were injected twice subcutaneously with above stimuli, respectively. The interval between injections was one week. […]

SIINFEKL [OVA peptide] was tested, and the “IL-2 production by B3Z cells” value (B3Z T cell hybridoma) was “could induce IL-2 production”, the “Competition of the labelled report OVA peptide binding to Kb” value (H2-Kb molecules) was 50% and the “Induction of T cell responses by the immunising stimulus (proliferation of spleen T cells)” value [1] was “responded to OVA-edited microsomes in vitro”.
